# Assay results reported in US8901105B2, “Prodrug derivatives of (E)-N-methyl-N-((3-M ethylbenzofuran-2-yl)methyl)-3-(7-oxo-5,6,7,8-tetrahydro-1,8-naphthyridin-3-yl)acrylamide” (Affinium Pharmaceuticals, Inc., priority 2012, dated 2014).
# Where a name gives a salt, the structure may show the parent alone.
# Assay: Solid-state stability (HPLC % area after storage)
# Type: physicochemical
# Protocol: Various compounds disclosed herein have been placed on long-term solid-state stability protocol. The compounds were stored in glass vials closed with PTFE lined caps at 30° C./65% RH, 40° C./75% RH, 50° C. and 60° C. (ambient humidity). The results of the study after 4 weeks are shown in Table B1 and after 3 months in Table B2. Appearance and purity analysis were conducted using HPLC and XPRD. The HPLC analyses were conducted using standard equipment such as a Agilent HP1100 HPLC (Station ID: LZPES HPLC 04) with YMC-Pack ODS-AQ sub 3 μm, 150×4.6 mm
structure (smiles),measurement,setting,value
"Cc1c(CN(C)C(=O)/C=C/c2cnc3c(c2)CCC(=O)N3COP(=O)(O)O)oc2ccccc12 [Compound 10, (E)-6-[(N-methyl-((3-methylbenzofuran-2-yl)methyl)amino)-3-oxoprop-1-en-1-yl)-2-oxo-3,4-dihydro-1,8-naphthyridin-1(2H)-yl]methylphosphate bis-ethanolammonium salt]",Solid-state stability % Area,"3 months, 30° C./65% RH",98.61 % Area
same,Solid-state stability % Area,"3 months, 40° C./75% RH",92.75 % Area
same,Solid-state stability % Area,"3 months, 50° C./ambient humidity",99.04 % Area
same,Solid-state stability % Area,"3 months, Control (ambient lab conditions protected from light)",98.9 % Area
same,Solid-state stability % Area,"4 weeks, 30° C./65% RH",98.5 % Area
same,Solid-state stability % Area,"4 weeks, 40° C./75% RH",98.2 % Area
same,Solid-state stability % Area,"4 weeks, 50° C./ambient humidity",99.3 % Area
same,Solid-state stability % Area,"4 weeks, 60° C./ambient humidity",98.7 % Area
same,Solid-state stability % Area,"4 weeks, Control (ambient lab conditions protected from light)",98.9 % Area
same,physical and chemical stability,"over 3 months at 30° C./65% RH and 50° C., closed vials, light protected",physically and chemically stable
